Measured values from patent US5391765A, “Cholesterol lowering/antioxidant nitroxides” (Bristol-Myers Squibb Company, priority 1993, dated 1995).

Key:
[1] = Oxidation potential by cyclic voltammetry
HMG-CoA reductase [2] = assay: HMG-CoA reductase specific activity in normocholesterolemic male chickens; format: in vivo, chicken; details: orally dosed for 4 weeks at 4 mg/kg/day
Protocol: (§1) Hypocholesterolemic activity was evaluated for the synthetic analogues using γ-tocotrienol as a control in normocholesterolemic chickens. Newborn male chicks (6-10 for each group) were raised on a standard corn-soybean-based control diet for two weeks and then were switched to either control or experimental diets for four weeks. Drug treatment consisted of the addition of test compound to the corn-soybean-based. At the end of the feeding period, all the birds were fasted (about 36 hours) and refed (about 48 hours) to induce cholesterolgenic enzymes prior to sacrifice. The specific activity of HMG-CoA reductase, total serum cholesterol levels, HDL/LDL cholesterol pools, and triglyceride levels (data not shown) were examined (Table II).
(§2) Effects of Compound 3 on Lipid Parameters in Male Chickens
(§3) Orally dosed for 4-weeks at 4 mg/kg/day

[3] = tested on: normocholesterolemic chickens; assay: Serum lipids (total, LDL and HDL cholesterol) in normocholesterolemic male chickens; format: in vivo, chicken; details: orally dosed for 4 weeks at 4 mg/kg/day
Protocol: as §1, §2, §3

HepG2 cells = assay: Cholesterol biosynthesis, 14C-acetate incorporation in HepG2 cells; format: cell-based; details: Homo sapiens, 4 h incubation, 14C-acetate incorporation over final hour, read-out: Chol. Biosynthesis
Protocol: (§4) The human hepatoma HepG2 cell culture model was employed to compare the intrinsic activities of the synthetic analogues relative to the tocotrienols. HepG2 cells were incubated with the indicated compounds for 4 hours at 10 μM. Cholesterol synthesis was assayed by ^14 C-acetate incorporation over the final hour of incubation, and HMG-CoA reductase suppression (specific activity) was assayed in the microsomal fraction isolated from parallel cultures at the end of the 4 hour incubation. […] (Table I)

HMG-CoA reductase [4] = assay: HMG-CoA reductase suppression (specific activity) in microsomal fraction of treated HepG2 cells; format: cell-based, human; details: 10 μM, 4 h incubation
Protocol: as §4

LDL [5] = assay: In vitro copper-mediated LDL oxidation, conjugated diene lag time extension; details: 10 μM incubated with rabbit plasma, isolated LDL, added Cu++; lag time ratio treated/control
[6] = background statement; cited from earlier work
LDL [7] = details: in vitro and in vivo; cited from earlier work
LDL [8] = details: oral vitamin E supplementation; cited from earlier work

Molecule	Oxd. Potential [1]	HDL-C [3]	LDL-C [3]	activity at 10 µM (HepG2 cells)	HMGR Suppression (HMG-CoA reductase [4])	further results
CC(C)=CCC/C(C)=C/CC/C(C)=C/CCSCC1=CC(C)(C)N([O])C1(C)C [Compound 3, 2,5-Dihydro-2,2,5,5-Tetramethyl-3-[[(4,8,12-Trimethyl-3(E),7(E),11-Tridecatrienyl)thio]methyl]-1H-Pyrrole N-Oxide Radical]	0.65 Volts	85.8 % of Control	52.8 % of Control	5%	45% of Control	HMGR (HMG-CoA reductase [2]): 56.0 % of Control; Tot.-C ([3]; total serum cholesterol): 72.0 % of Control; LDL Oxd. Inhib. mean lag ratio (LDL [5]): 0.97
CC(C)=CCC/C(C)=C/CC/C(C)=C/CCCOc1ccc2c(c1)C(C)=CC(C)(C)N2[O] [Compound 5, 1,2 -Dihydro-2,2,4-Trimethyl-6-[(5,9,13 -Trimethyl-4(E),8(E),12-tetradecatrienyl)oxy]Quinoline N-Oxide Radical]	–	–	–	72%	–	–
CC(C)(Sc1cc(C(C)(C)C)c(O)c(C(C)(C)C)c1)Sc1cc(C(C)(C)C)c(O)c(C(C)(C)C)c1 [PROBUCOL, 4,4'-[(1-methylethylidene)bis(thio)]bis[2,6-bis(1,1-dimethylethyl)]]	1.12 Volts	–	–	–	–	bioavailability [6]: suffers from bioavailability problems; oxidative modification of LDL (LDL [7]): inhibits the oxidative modification of LDL both in vitro and in vivo
Cc1c(C)c2c(c(C)c1O)CCC(C)(CCCC(C)CCCC(C)CCCC(C)C)O2 (stereo not drawn) [α-Tocopherol]	0.81 Volts	–	–	–	–	–
CC(C)=CCC/C(C)=C/CC/C(C)=C/CCC1(C)CCc2cc(O)c(C)c(C)c2O1 (centres unmarked) [γ-Tocotrienol]	0.94 Volts	87.0 % of Control	54.8 % of Control	75%	65% of Control	–
vitamin E	–	–	–	–	–	antioxidant effectiveness, variation between subjects (LDL [8]): varied considerably from subject to subject; oxidative resistance of LDL (LDL [8]): significantly enhanced
